Experimental data taken from article PMC7655540, “Accumulation of Target Gene Mutations Confers Multiple Resistance to ALS, ACCase, and EPSPS Inhibitors in Lolium Species in Chile” (Frontiers in Plant Science, 2020).
Where two headings read alike, the source gives them in different places.

Assays:
ACCase [1] = target: T1, ACCase (Lolium perenne, UniProt Z9B5O7SYH2); experiment: ATP-dependent incorporation of […]-bicarbonate into malonyl-CoA; type: biochemical; settings: R population extract, heterogeneous alleles; 5 mM acetyl-CoA, pH 8.3, 34°C; stated gain; read-out: I50
T1 construct: native enzyme, young leaf extract, ammonium sulfate fraction, desalted; isoforms not separated

ACCase [2] = target: T1, ACCase; experiment: as above; type: biochemical; settings: S population; partially purified leaf extract; 5 mM acetyl-CoA, pH 8.3, 34°C; diclofop-acid per methods; read-out: I50
ACCase [3] = target: T2, ACCase (Lolium multiflorum, UniProt A0AAD8WR50); experiment: as above; type: biochemical; settings: S population; partially purified leaf extract; 5 mM acetyl-CoA, pH 8.3, 34°C; diclofop-acid per methods; read-out: I50
T2 construct: gene QYE76_038327; native enzyme, young leaf extract, ammonium sulfate fraction, desalted; isoforms not separated

EPSPS = experiment: phosphate release, EnzCheck phosphate assay, […] nm; type: biochemical, Lolium perenne; settings: S population; partially purified leaf extract; pH 7.0; read-out: I50

T2 sequence (A0AAD8WR50 1-2320): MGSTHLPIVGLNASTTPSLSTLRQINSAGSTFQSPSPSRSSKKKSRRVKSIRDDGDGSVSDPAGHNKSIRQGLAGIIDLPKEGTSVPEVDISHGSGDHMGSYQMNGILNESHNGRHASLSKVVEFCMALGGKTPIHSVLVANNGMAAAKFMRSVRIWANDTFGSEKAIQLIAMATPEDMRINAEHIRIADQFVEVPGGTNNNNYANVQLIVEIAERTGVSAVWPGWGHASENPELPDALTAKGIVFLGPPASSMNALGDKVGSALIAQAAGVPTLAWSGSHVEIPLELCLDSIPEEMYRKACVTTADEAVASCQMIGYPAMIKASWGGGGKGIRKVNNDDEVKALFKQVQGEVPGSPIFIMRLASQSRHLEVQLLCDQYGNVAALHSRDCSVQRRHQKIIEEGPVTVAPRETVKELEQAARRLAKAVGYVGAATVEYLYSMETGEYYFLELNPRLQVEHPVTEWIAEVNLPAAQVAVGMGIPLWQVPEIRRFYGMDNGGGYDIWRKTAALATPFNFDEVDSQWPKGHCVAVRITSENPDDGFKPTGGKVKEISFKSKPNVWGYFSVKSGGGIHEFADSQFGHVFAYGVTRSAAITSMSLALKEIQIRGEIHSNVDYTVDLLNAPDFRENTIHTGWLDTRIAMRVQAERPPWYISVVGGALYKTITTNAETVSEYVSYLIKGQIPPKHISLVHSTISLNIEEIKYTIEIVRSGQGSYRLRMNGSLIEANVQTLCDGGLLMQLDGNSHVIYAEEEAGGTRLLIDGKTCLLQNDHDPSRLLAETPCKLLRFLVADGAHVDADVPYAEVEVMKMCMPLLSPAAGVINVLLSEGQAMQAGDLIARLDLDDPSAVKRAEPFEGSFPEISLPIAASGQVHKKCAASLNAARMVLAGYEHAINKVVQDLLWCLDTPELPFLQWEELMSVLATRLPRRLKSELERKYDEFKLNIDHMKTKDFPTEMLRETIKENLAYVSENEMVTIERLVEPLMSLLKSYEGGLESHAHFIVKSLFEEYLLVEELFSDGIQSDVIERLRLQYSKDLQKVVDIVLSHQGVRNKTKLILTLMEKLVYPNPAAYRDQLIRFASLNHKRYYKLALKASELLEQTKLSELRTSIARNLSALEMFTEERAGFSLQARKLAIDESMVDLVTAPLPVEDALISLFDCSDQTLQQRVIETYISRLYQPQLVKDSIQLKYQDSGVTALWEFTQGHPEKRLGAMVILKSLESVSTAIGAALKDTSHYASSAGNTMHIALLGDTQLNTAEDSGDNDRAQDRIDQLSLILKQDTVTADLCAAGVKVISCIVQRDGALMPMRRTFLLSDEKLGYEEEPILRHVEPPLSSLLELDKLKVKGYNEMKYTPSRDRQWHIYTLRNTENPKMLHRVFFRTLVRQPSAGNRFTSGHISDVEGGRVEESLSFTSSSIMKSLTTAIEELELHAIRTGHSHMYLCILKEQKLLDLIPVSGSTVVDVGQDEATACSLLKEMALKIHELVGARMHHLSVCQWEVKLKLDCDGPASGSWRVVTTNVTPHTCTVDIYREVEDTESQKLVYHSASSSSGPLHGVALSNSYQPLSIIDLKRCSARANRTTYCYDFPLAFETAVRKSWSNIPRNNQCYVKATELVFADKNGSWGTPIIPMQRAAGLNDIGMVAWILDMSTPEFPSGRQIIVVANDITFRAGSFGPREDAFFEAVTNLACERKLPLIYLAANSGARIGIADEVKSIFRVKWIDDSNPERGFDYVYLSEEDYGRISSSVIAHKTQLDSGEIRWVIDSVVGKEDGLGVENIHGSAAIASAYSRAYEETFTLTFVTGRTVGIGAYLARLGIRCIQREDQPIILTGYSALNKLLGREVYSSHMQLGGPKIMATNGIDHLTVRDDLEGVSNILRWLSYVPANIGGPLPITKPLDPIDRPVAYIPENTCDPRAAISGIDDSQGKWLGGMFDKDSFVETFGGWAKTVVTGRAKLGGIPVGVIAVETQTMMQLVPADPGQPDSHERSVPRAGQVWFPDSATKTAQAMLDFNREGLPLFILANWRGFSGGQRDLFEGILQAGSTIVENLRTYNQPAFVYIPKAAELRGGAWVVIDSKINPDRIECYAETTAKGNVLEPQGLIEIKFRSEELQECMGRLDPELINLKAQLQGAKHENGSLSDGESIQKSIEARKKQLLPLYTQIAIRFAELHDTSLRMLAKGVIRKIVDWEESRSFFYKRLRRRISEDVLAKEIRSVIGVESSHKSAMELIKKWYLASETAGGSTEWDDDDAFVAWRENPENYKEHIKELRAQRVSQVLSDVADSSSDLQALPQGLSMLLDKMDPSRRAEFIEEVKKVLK

Row | SMILES | IC50 (ACCase [1]) [µM] | IC50 (ACCase [2]) [µM] | IC50 (ACCase [3]) [µM] | IC50 (EPSPS) [µM]
1 | CC(Oc1ccc(Oc2ccc(Cl)cc2Cl)cc1)C(=O)O (stereo not shown) [diclofop-acid] | 68.6 | 6.2 | 4.6 | –
2 | O=C(O)CNCP(=O)(O)O [glyphosate] | – | – | – | 7.8
